This note sets out measurements from patent publication US20240018153A1, “BENZENESULFONAMIDE DERIVATIVES AND USES THEREOF” (2692372 ONTARIO, INC., priority 2020, published 2024).

What all share (type): biochemical
Experiment [1] has as its target BTK (Homo sapiens (Human), UniProt Q06187). Put plainly: HTRF KinEASE-TK kinase assay, BTK. Particulars: 3 h preincubation; for remaining activity at 1 µM: 1 μM compound, read-out: % BTK Remaining activity vs DMSO (1 μM, 3 h); for remaining activity at 10 µM: 10 μM compound, read-out: % BTK Remaining activity vs DMSO (10 μM, 3 h). The procedure:
Kinase activity was monitored using a HTRF® KinEASE-TK kit from Cisbio (62TK0PEC). For BTK, the 1× kinase buffer was supplemented with 10 mM MnCl2, 5 mM MgCl2, 1 uM ATPγS, 1 mM TCEP and 100 fold diluted Supplementary Enzyme Buffer. BTK was purchased from Promega. […] Reaction with substrate was then initiated by adding biotinylated substrate and ATP and the reaction was allowed to proceed for 45 min. […] After 60 min of incubation, the fluorescence emission was measured at 620 nm and 665 nm. The ratio of Em 665 nm to Em 620 nm was proportional to the amount of substrate phosphorylated by the kinase.

Experiment [2] concerns the target FGFR4 (Homo sapiens (Human), UniProt P22455). Put plainly: HTRF KinEASE-TK kinase assay, FGFR4. Particulars: for remaining activity at 1 µM: read-out: % FGFR4 Remaining activity vs DMSO (1 μM, 3 h); for remaining activity at 10 µM: read-out: % FGFR4 Remaining activity vs DMSO (10 μM, 3 h). How it is done:
(§1) Kinase activity was monitored using a HTRF® KinEASE-TK kit from Cisbio (62TK0PEC). […] FGFR-4 was purchased from Promega. 0.333 ng/ul FGFR4 (5.12 nM) was preincubated in the absence or presence of inhibitor at room temperature for 3 hours. Reaction with substrate was then initiated by adding biotinylated substrate and ATP. […] The reaction was terminated by adding 31.25 nM SA-XL665 and 100 fold diluted europium labelled antibody (Eu-Ab), diluted in 1× detection buffer that contained EDTA. After 60 min of incubation, the fluorescence emission was measured at 620 nm and 665 nm. The ratio of Em 665 nm to Em 620 nm was proportional to the amount of substrate phosphorylated by the kinase.

Experiment [3] has as its target BMX (Homo sapiens (Human), UniProt P51813). Nature of the experiment: HTRF KinEASE-TK kinase assay, BMX. The following applies: 3 h preincubation; for remaining activity at 1 µM: 1 uM compound; for remaining activity at 10 µM: 10 uM compound. How it is done:
as §1, with “BMX” for “FGFR-4”, “BMX (3.03” for “FGFR4 (5.12”, “The reaction” for “Reaction”, “Reaction” for “The reaction”

Experiment [4] has as its target EGFR (Homo sapiens (Human), UniProt P00533). Nature of the experiment: HTRF KinEASE-TK kinase assay, EGFR. Particulars: 3 h preincubation; for remaining activity at 1 µM: 1 μM compound, read-out: % EGFR Remaining activity vs DMSO (1 μM, 3 h); for remaining activity at 10 µM: 10 μM compound, read-out: % EGFR Remaining activity vs DMSO (10 μM, 3 h). How it is done:
Kinase activity was monitored using a HTRF® KinEASE-TK kit from Cisbio (62TK0PEC). The buffer used was 1× kinase buffer supplemented with 2 mM MnCl2, 5 mM MgCl2, 1 mM TCEP and 100× diluted Supplementary Enzyme Buffer. EGFR was purchased from Promega. […] Reaction with substrate was then initiated by adding biotinylated substrate and ATP. […] After 60 min of incubation, the fluorescence emission was measured at 620 nm and 665 nm. The ratio of Em 665 nm to Em 620 nm was proportional to the amount of substrate phosphorylated by the kinase.
For initial screening, enzymes were pre incubated with compounds at 2 different concentrations (1 and 10 uM final) and 0.5% DMSO.

The target in experiment [5] is JAK3 (Homo sapiens (Human), UniProt P52333). Nature of the experiment: HTRF KinEASE-TK kinase assay, JAK3. Particulars: for remaining activity at 1 µM: read-out: % JAK3 Remaining activity vs DMSO (1 μM, 3 h); for remaining activity at 10 µM: read-out: % JAK3 Remaining activity vs DMSO (10 μM, 3 h). How it is done:
as §1, with “JAK-3” for “FGFR-4”, “0.0133” for “0.333”, “JAK3 (0.21” for “FGFR4 (5.12”

The target in experiment [6] is RIPK2 (Homo sapiens (Human), UniProt O43353). Nature of the experiment: In vitro RIPK2 inhibition. The following applies: for remaining activity at 1 µM: read-out: % RIPK2 Remaining activity vs DMSO (1 μM, 3 h); for remaining activity at 10 µM: read-out: % RIPK2 Remaining activity vs DMSO (10 μM, 3 h).
Chain of RIPK2 (O43353 whole entry, species assumed): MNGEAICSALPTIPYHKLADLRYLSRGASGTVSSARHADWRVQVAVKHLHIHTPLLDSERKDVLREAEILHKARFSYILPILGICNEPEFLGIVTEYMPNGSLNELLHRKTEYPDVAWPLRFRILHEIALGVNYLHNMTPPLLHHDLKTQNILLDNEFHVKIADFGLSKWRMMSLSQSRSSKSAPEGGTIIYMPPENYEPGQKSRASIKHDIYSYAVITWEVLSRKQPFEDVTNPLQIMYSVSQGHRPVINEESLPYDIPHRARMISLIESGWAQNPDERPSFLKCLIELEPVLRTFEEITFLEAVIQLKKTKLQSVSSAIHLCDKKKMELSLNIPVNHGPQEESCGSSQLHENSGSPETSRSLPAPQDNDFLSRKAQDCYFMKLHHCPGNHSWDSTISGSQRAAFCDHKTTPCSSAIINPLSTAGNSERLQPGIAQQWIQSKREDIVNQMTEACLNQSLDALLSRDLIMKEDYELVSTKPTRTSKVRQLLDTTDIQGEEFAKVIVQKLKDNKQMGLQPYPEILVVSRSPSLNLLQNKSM

Molecules are shown by their SMILES.

Chain of JAK3 (P52333 781-1124): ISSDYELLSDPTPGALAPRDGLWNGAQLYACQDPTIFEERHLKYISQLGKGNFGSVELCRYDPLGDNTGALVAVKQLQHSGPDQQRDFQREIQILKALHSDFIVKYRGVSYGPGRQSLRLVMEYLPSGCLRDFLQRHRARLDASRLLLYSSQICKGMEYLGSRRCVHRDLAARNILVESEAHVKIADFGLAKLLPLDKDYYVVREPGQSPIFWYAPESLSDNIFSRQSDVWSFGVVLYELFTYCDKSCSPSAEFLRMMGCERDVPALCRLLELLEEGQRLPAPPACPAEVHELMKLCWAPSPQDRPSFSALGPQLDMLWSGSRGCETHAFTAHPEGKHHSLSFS
Chain of FGFR4 (P22455 22-802): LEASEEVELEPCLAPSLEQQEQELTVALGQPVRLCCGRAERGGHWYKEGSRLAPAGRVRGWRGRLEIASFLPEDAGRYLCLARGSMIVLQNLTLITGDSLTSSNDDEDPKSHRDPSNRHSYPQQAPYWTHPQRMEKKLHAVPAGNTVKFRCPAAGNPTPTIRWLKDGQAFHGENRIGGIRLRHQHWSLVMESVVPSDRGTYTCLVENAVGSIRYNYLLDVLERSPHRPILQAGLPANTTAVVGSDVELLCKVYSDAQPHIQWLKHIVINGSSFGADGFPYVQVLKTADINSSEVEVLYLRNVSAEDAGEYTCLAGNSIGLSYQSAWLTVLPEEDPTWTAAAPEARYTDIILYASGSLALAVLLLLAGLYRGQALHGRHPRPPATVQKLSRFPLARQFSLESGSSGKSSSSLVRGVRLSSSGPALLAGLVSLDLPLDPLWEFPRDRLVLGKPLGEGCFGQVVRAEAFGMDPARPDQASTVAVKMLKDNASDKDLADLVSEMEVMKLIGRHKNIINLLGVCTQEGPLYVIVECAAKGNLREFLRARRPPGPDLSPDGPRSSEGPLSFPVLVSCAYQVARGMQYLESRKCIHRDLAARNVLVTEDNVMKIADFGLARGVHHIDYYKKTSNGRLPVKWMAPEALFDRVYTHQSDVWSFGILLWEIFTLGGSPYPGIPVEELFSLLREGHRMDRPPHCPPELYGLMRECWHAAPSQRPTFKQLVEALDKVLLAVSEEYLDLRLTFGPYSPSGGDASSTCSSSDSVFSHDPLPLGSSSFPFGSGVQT
Chain of EGFR (P00533 25-1210): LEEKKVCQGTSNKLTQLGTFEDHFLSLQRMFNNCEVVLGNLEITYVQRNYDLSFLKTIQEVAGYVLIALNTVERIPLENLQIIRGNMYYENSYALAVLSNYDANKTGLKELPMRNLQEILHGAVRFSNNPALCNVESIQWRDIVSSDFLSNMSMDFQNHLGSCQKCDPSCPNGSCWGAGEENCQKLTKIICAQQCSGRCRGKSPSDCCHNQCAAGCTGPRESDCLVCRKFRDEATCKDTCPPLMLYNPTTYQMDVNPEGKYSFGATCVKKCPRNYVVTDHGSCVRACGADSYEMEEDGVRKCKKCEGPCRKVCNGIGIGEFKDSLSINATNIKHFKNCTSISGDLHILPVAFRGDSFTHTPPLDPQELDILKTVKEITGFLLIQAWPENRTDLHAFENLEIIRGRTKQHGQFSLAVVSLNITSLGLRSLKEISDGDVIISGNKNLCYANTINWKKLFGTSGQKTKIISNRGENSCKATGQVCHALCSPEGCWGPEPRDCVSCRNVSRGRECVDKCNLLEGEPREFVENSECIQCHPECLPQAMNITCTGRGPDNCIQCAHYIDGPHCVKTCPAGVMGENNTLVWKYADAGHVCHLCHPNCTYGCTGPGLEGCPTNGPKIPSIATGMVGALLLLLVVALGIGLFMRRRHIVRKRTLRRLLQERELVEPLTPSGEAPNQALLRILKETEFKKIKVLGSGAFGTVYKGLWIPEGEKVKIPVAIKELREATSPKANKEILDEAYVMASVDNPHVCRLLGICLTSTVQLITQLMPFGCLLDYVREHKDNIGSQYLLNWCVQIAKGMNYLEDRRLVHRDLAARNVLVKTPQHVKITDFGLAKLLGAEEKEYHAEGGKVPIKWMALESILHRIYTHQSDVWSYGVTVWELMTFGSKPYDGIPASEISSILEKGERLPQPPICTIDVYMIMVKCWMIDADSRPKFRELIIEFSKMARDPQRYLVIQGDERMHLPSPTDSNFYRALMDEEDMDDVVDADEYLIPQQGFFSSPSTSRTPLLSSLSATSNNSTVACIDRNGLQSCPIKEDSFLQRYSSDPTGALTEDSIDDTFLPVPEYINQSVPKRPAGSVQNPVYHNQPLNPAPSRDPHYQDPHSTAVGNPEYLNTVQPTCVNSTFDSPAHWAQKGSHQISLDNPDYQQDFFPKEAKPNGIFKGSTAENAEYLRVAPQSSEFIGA
Chain of BMX (P51813 whole entry): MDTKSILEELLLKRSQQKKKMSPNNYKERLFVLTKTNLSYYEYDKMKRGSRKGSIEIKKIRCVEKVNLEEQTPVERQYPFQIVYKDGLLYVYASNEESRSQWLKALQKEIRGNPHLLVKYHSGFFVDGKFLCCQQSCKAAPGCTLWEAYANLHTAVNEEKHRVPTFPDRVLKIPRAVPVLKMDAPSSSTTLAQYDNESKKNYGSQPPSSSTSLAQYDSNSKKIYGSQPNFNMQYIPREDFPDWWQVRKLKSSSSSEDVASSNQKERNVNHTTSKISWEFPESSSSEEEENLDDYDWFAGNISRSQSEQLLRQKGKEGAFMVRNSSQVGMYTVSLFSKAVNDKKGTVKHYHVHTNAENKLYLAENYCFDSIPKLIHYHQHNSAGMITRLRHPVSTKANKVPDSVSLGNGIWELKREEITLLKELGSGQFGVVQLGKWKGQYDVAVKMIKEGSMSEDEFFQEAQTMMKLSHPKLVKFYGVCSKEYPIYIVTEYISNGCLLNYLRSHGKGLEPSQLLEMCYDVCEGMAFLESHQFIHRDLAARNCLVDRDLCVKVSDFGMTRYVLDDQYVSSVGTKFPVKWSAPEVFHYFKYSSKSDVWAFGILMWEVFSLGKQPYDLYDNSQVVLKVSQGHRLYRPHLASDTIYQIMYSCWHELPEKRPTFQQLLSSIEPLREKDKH
Chain of BTK (Q06187 whole entry): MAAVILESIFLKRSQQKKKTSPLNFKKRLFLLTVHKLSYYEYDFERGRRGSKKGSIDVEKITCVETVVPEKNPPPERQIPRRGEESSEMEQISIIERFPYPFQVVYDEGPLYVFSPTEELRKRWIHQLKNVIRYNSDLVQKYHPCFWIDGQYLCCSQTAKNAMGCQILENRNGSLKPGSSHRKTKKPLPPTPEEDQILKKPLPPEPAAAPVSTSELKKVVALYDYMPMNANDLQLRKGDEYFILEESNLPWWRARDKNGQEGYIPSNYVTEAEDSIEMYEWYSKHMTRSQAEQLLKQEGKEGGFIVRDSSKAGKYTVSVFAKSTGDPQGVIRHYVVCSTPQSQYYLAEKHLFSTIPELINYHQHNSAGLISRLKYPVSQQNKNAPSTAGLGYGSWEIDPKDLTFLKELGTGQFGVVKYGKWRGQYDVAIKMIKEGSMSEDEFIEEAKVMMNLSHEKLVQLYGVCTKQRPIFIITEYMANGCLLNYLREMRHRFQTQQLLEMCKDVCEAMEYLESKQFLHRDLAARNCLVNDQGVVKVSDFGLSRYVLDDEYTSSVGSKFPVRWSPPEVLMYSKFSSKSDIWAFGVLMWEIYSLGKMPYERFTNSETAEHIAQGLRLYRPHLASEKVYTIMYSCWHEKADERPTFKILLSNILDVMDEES

With `CN(C)S(=O)(=O)c1c(F)c(F)c(F)c(F)c1C(=O)N1CC(n2nc(-c3ccc(Oc4ccccc4)cc3)c3c(N)ncnc32)C1` [Compound I-29, 2-(3-(4-amino-3-(4-phenoxyphenyl)-1H-pyrazolo[3,4-d]pyrimidin-1-yl)azetidine-1-carbonyl)-3,4,5,6-tetrafluoro-N,N-dimethylbenzenesulfonamide], the remaining activity at 1 µM in experiment [1] was below 50%; in experiment [2], 50 to 90%; in experiment [3], below 50%; in experiment [4], below 50%; in experiment [5], below 50%; in experiment [6], 50 to 90%. The remaining activity at 10 µM in experiment [1] is below 50%; in experiment [2], above 90%; in experiment [3], below 50%; in experiment [4], below 50%; in experiment [5], below 50%; in experiment [6], 50 to 90%.

For the compound `CN(CCn1nc(-c2ccc(Oc3ccccc3)cc2)c2c(N)ncnc21)C(=O)c1c(F)c(F)c(F)c(F)c1S(=O)(=O)N(C)C` [Compound I-30, N-(2-(4-amino-3-(4-phenoxyphenyl)-1H-pyrazolo[3,4-d]pyrimidin-1-yl)ethyl)-2-(N,N-dimethylsulfamoyl)-3,4,5,6-tetrafluoro-N-methylbenzamide], the remaining activity at 1 µM in experiment [1] was below 50%; in experiment [2], below 50%; in experiment [3], 50 to 90%; in experiment [4], above 90%; in experiment [5], above 90%; in experiment [6] it was 50 to 90%. For the same compound, the remaining activity at 10 µM in experiment [1] was below 50%; in experiment [2] it was below 50%; in experiment [3], below 50%; in experiment [4] it was 50 to 90%; in experiment [5] it was 50 to 90%; in experiment [6], above 90%. In experiment [2] (dose response), this compound registered a half-inhibitory concentration (IC50) below 1 µM.

On to `CS(=O)(=O)c1c(F)c(F)c(F)c(F)c1C(=O)NCCNc1ncnc2[nH]ccc12` [Compound I-45, N-(2-((7H-pyrrolo[2,3-d]pyrimidin-4-yl)amino)ethyl)-2,3,4,5-tetrafluoro-6-(methylsulfonyl)benzamide], for which the remaining activity at 1 µM in experiment [1] was below 50%; in experiment [2] it was above 90%; in experiment [3] it was below 50%; in experiment [4] it was above 90%; in experiment [5] it was below 50%; in experiment [6], below 50%. Further, the remaining activity at 10 µM in experiment [1] is below 50%; in experiment [2], below 50%; in experiment [3], below 50%; in experiment [4], below 50%; in experiment [5] it was below 50%; in experiment [6] it was 50 to 90%.
